Assays:
[1] = test system: cloned mammalian (mSlo or hSlo) BK channels; assay: BK-mediated outward current, two-electrode voltage clamp in Xenopus oocytes; format: cell-based; details: at 20 μM; percent increase over BK current in controls; IBTX-sensitive current; at least 5 oocytes
Method: The ability of compounds described in the present invention to open BK channels and increase whole-cell outward (K^+) BK-mediated currents was assessed under voltage-clamp conditions by determining their ability to increase cloned mammalian (mSlo or hSlo) BK --mediated outward current heterologously expressed in Xenopus oocytes [Butler, A., et al., Science, 261: 221-224 (1993); and Dworetzky, S. I., et al., Mol. Brain Res., 27: 189-193 (1994)]. The two BK constructs employed represent nearly structurally identical homologous proteins, and have proven to be pharmacologically identical in our tests. To isolate BK current from native (background, non-BK) current, the specific and potent BK channel-blocking toxin iberiotoxin (IBTX) [Galvez, A., et al., J. Biol. Chem., 265: 11083-11090 (1990)] was employed at a supramaximal concentration (50 nM). The relative contribution of BK channels current to total outward current was determined by subtraction of the current remaining in the presence of IBTX (non-BK current) from the current profiles obtained in all other experimental conditions (control, drug, and wash). […] All compounds were tested in at least 5 oocytes and are reported at the single concentration of 20 μM; the effect of the selected compounds of Formula I on BK current was expressed as the percent of control IBTX-sensitive current and is listed in Table I. Recordings were accomplished using standard two-electrode voltage clamp techniques [Stuhmer, W., et al., Methods in Enzymology, Vol. 207: 319-339 (1992)]; voltage-clamp protocols consisted of 500-750 ms duration step depolarizations from a holding potential of -60 mV to +140 mV in 20 mV steps. The experimental media (modified Barth's solution) consisted of (in mM): NaCl (88), NaHCO3 (2.4), KCl (1.0), HEPES (10), MgSO4 (0.82), Ca(NO3)2 (0.33), CaCl2 (0.41); pH 7.5.

cortical infarct volume = assay: permanent focal ischemia, middle cerebral artery occlusion (MCAO) model; format: in vivo, spontaneously hypertensive rat; details: 0.003 mg/kg i.v. single bolus 2 hours after MCAO; infarct measured 24 hours after MCAO; vs vehicle-treated control
From the text: To determine the ability of these compounds to reduce cell loss resulting from neuronal ischemia, a standard rodent model of permanent focal ischemia, involving occlusion of the middle cerebral artery in the spontaneously hypertensive rat (middle cerebral artery occlusion (MCAO) model) was employed [Tamura, A., et al., Journal of Cerebral Blood Flow and Metabolism, Volume 1, 53-60, (1981)].
Selected compounds have been evaluated in the focal stroke model involving permanent MCAO in the spontaneously hypertensive rat. This procedure results in a reliably large neocortical infarct volume that is measured by means of vital dye exclusion in serial slices through the brain 24 hours after MCAO. In the present test, compounds were administered using an intravenous route of administration at 2 hours after occlusion.

[2] = test system: intracavernous pressure (ICP/BP) response; assay: in vivo model on erectile function, cavernous nerve stimulation; design: species or system rat; details: 0.1-1.0 mg/kg i.v., anesthetized rats
From the text: The in vivo model on erectile function is described fully in the scientific literature [Rehman, J., Chenven, E., Brink, P. Peterson, B., Wolcott, B., Wen, Y. P., Melman, A., Christ, G.: Diminished neurogenic but not pharmacological erections in the 2- to 3-month experimentally diabetic F-344 rat. Am. J. Physiol. 272: H1960-H1971, (1997)]. Briefly, rats (250-600 g) were anesthetized using sodium pentobarbital, the abdomen opened and the cavernous nerve identified. A pressure catheter was placed in the right corpus cavernosum (crus) to measure intracavernous pressure (ICP). A second catheter was introduced into the carotid artery to measure blood pressure. Test compound (0.1, 0.3 and 1 mg/kg iV.) or vehicle (PEG 400) was given via a catheter placed into the jugular vein.
Control intracavernous pressure responses were elicited by electrically stimulating the cavernous nerve via bipolar stimulating electrodes (20 Hz, 0.22 ms pulse width). Stimulus amplitude (0.2-20 mA) was adjusted to produce a submaximal intracavernous pressure response (typically 0.2 or 0.5 mA). A series of control intracavernous pressure responses were then obtained using a constant stimulus amplitude. Test compound or vehicle was then administered (200 μl i.v bolus) and the cavernous nerve was restimulated to evoke a cavernous pressure response at various times post-drug administration. […]

SMILES | BK Current [1] | reduction of cortical infarct volume (cortical infarct volume) | ICP/BP ratio elicited by sub-maximal stimulation of the cavernous nerve [2]
COc1ccc(Cl)cc1-c1c(CO)c(=O)[nH]c2cc(C(F)(F)F)ccc12 [Example 3, 4-(5-Chloro-2-methoxyphenyl)-3-(hydroxymethyl)-7-(trifluoromethyl)-2(1H)-quinolinone] | + (+ = 100-200%) |  | 
O=c1[nH]c2ccc(C(F)(F)F)cc2c(-c2cc(Cl)ccc2O)c1CO [Example 9, 4-(5-Chloro-2-hydroxyphenyl)-3-(hydroxymethyl)-6-(trifluoromethyl)-2(1H)-quinolinone] | ++ (++ = >200%) |  | 
Cc1c(-c2cc(Cl)ccc2O)c2cc(C(F)(F)F)ccc2[nH]c1=O [Example 34, 4-(5-Chloro-2-hydroxyphenyl)-3-methyl-6-(trifluoromethyl)-2(1H)-quinolinone] | ++ (++ = >200%) |  | 
COc1ccc(Cl)cc1-c1c(C=O)c(=O)[nH]c2ccc(C(F)(F)F)cc12 [Example 4, 4-(5-Chloro-2-methoxyphenyl)-1,2-dihydro-2-oxo-6-(trifluoromethyl)-3-quinolinecarboxaldehyde] | + (+ = 100-200%) |  | 
COc1ccc(Cl)cc1-c1c(C=NO)c(=O)[nH]c2ccc(C(F)(F)F)cc12 [Example 39, 4-(5-Chloro-2-methoxyphenyl)-1,2-dihydro-2-oxo-6-(trifluoromethyl)-3-quinolinecarboxaldehyde oxime] | ++ (++ = >200%) |  | 
COc1ccc(Cl)cc1-c1c(CCO)c(=O)[nH]c2ccc(C(F)(F)F)cc12 [Example 21, 4-(5-Chloro-2-methoxyphenyl)-3-(2-hydroxyethyl)-6-trifluoromethyl-2(1H)-quinolinone] | ++ (++ = >200%) | about 25% | 
COc1ccc(Cl)cc1-c1c(/C=C(/F)CO)c(=O)[nH]c2ccc(C(F)(F)F)cc12 [Example 18, (E)-4-(5-Chloro-2-methoxyphenyl)-3-(2-fluoro-3-hydroxy-1-propenyl)-6-(trifluoromethyl)-2(1H)-quinolinone] | + (+ = 100-200%) |  | 
O=c1[nH]c2ccc(C(F)(F)F)cc2c(-c2cc(Cl)ccc2O)c1CCO [Example 20, 4-(5-Chloro-2-hydroxyphenyl)-3-(2-hydroxyethyl)-6-(trifluoromethyl)-2(1H)-quinolinone] | ++ (++ = >200%) |  | significant increase
O=c1[nH]c2ccc(C(F)(F)F)cc2c(-c2cc(Cl)ccc2O)c1/C=C(\F)CO [Example 17, (Z)-4-(5-Chloro-2-hydroxyphenyl)-3-(2-fluoro-3-hydroxy-1-propenyl)-6-(trifluoromethyl)-2(1H)-quinolinone] | + (+ = 100-200%) |  | 
O=c1[nH]c2ccc(C(F)(F)F)cc2c(-c2cc(Cl)ccc2O)c1Cc1ccc(O)cc1 [Example 30, 4-(5-Chloro-2-hydroxyphenyl)-3-[(4-hydroxyphenyl)methyl]-6-(trifluoromethyl)-2(1H)-quinolinone] | ++ (++ = >200%) |  | 
Nc1ccc(-c2c(-c3cc(Cl)ccc3O)c3cc(C(F)(F)F)ccc3[nH]c2=O)cc1 [Example 32, 4-(5-Chloro-2-hydroxyphenyl)-3-(4-aminophenyl)-6-(trifluoromethyl)-2(1H)-quinolinone] | ++ (++ = >200%) |  | 
COc1ccc(Cl)cc1-c1c(CCCO)c(=O)[nH]c2ccc(C(F)(F)F)cc12 [Example 8, 4-(5-Chloro-2-methoxyphenyl)-3-(3-hydroxypropyl)-6-(trifluoromethyl)-2(1H)-quinolinone] | ++ (++ = >200%) |  | 

Reference: patent publication US6184231A, “3-substituted-4-arylquinolin-2-one derivatives as potassium channel modulators” (priority 1999, dated 2001)
